Values quoted from earlier work, collected in patent publication US20040235879A1, “Method for treatment of chemotherapy-induced diarrhea” (priority 2003, published 2004).
Counter-ions that a name gives are not always drawn.

Key:
[1] = cited from earlier work
[2] = target: P-gp (ABCB1) (Homo sapiens, UniProt P08183); conditions: cited from earlier work
[3] = target: T1, BCRP/MXR/ABCP (ABCG2) (Homo sapiens, UniProt Q9UNQ0); conditions: cited from earlier work
T1 sequence (Q9UNQ0 1-655): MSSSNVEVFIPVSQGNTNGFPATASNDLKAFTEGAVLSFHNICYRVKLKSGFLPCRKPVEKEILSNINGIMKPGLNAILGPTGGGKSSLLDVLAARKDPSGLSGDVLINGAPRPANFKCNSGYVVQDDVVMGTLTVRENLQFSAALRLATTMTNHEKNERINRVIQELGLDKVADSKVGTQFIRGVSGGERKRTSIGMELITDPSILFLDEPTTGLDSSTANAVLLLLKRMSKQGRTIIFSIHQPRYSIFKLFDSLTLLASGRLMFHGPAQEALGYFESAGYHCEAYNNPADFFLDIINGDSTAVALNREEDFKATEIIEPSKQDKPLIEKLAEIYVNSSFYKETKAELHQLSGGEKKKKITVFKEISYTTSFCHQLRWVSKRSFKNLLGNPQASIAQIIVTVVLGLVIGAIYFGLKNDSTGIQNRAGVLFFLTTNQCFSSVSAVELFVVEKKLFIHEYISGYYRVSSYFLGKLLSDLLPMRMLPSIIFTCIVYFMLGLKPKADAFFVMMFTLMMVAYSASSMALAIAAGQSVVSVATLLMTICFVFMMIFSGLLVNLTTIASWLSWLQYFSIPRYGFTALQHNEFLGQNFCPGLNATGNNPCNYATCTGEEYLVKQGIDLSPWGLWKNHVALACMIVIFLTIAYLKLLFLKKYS

[4] = target: MRP2 (ABCC2) (Homo sapiens, UniProt Q92887); conditions: cited from earlier work
MRP2 (ABCC2), sequence (Q92887 whole entry, species assumed): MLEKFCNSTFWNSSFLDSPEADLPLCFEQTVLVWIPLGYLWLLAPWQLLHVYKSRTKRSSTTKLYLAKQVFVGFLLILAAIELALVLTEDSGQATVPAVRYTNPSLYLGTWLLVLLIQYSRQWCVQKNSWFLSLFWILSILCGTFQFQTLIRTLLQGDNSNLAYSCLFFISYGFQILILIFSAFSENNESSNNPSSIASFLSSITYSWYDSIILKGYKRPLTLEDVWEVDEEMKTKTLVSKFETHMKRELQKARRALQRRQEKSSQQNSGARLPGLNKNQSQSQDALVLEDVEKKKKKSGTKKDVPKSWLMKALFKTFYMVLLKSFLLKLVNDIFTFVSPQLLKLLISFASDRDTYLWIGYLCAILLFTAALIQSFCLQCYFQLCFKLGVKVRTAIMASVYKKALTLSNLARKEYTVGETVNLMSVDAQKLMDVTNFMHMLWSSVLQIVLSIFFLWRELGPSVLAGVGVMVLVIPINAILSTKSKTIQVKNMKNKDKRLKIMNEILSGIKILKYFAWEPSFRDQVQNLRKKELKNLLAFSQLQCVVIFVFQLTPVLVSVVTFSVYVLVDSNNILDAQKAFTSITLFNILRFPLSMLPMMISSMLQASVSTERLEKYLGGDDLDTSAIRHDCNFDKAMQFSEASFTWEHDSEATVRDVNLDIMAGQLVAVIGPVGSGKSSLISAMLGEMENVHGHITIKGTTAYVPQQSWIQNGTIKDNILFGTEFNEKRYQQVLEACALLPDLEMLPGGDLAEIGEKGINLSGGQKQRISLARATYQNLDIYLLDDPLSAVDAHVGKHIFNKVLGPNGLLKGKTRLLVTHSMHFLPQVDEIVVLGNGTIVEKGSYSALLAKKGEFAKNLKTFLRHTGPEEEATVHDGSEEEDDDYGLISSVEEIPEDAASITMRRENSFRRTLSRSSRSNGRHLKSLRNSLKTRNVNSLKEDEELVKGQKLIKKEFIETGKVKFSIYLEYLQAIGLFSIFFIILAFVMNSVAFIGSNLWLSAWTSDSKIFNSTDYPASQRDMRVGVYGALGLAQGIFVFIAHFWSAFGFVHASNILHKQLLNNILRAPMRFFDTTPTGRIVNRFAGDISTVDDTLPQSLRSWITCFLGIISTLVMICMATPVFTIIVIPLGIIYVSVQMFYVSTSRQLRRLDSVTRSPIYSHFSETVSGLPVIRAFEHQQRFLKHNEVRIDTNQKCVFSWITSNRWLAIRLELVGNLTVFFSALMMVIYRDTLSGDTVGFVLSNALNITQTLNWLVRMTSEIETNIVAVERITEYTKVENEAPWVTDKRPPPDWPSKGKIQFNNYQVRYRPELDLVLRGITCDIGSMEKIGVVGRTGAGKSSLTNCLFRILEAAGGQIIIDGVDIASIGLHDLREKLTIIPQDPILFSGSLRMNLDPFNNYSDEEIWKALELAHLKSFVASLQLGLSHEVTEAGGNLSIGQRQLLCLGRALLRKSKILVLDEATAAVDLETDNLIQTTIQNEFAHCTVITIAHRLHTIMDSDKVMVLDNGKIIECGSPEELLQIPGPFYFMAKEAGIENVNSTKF

P-gp (ABCB1), sequence (P08183 whole entry, species assumed): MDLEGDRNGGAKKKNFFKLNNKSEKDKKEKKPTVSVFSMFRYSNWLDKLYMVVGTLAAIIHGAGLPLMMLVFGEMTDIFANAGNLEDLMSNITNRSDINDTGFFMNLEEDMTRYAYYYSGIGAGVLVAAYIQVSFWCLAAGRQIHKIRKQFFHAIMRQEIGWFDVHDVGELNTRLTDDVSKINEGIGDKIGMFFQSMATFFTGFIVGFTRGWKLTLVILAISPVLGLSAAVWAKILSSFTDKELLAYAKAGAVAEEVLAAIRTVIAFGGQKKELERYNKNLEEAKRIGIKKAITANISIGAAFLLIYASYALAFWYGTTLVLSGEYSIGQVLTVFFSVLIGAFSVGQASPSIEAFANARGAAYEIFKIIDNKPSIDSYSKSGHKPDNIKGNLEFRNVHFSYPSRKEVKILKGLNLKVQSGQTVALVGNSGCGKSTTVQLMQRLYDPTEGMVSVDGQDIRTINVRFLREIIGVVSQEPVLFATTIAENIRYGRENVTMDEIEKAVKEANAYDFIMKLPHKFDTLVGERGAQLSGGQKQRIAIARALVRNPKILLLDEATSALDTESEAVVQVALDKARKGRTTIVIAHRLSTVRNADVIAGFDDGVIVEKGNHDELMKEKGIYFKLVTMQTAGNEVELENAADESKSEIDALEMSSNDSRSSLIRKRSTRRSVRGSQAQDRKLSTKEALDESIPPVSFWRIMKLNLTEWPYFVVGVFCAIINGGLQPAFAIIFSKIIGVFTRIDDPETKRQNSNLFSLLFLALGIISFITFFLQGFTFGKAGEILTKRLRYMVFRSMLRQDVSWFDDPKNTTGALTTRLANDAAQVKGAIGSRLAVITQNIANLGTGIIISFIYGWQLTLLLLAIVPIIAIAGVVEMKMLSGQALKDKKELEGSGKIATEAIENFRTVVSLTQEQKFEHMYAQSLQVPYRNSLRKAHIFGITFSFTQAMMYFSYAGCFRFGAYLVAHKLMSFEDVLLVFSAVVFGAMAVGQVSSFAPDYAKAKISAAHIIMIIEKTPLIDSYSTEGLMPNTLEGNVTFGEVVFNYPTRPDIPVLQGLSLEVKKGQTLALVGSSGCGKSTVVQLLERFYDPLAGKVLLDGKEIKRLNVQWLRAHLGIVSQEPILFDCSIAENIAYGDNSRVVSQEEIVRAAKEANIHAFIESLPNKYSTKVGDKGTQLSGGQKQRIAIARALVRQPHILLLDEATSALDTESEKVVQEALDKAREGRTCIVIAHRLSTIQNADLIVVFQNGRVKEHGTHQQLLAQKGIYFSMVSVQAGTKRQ

## CCc1c2c(nc3ccc(OC(=O)N4CCC(N5CCCCC5)CC4)cc13)-c1cc3c(c(=O)n1C2)COC(=O)[C@]3(O)CC [CPT-11, Irinotecan hydrochloride]
[1]; diarrhea alone or in combination with other gastrointestinal disturbances
  patients requiring hospitalization because of diarrhea: more than 18%

## CCc1c2c(nc3ccc(OC(=O)N4CCC(N5CCCCC5)CC4)cc13)-c1cc3c(c(=O)n1C2)COC(=O)[C@]3(O)CC [irinotecan, [1,4′-Bipiperidine]-1′-carboxylic acid (4S)-4,11-diethyl-3,4,12,14-tetrahydro-4-hydroxy-3,14-dioxo-1H-pyrano[3′,4′:6,7]indolizino[1,2-b]quinolin-9-yl ester]
[2]
  substrate of P-gp (ABCB1): substrate
[3]
  substrate of BCRP/MXR/ABCP (ABCG2): substrate
[4]
  substrate of MRP2 (ABCC2): substrate

## O=c1[nH]cc(F)c(=O)[nH]1 [5-fluorouracil]
[1]; 5-fluorouracil alone
  patients with severe or life-threatening diarrhea: About 8%
[1]; 5-fluorouracil combined with leucovorin
  frequency of severe or life-threatening diarrhea: up to 25%
